Columns and labels:
[1] = test system: Surinam grass; assay: Test B pre-/postemergence herbicide test; type: in vivo, Urochloa decumbens; settings: for Surinam Grass plant response rating: postemergence, scale 0 (no effect) to 100 (complete control)
How it was run: (§1)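 Herbicidal effect was judged by eye on a 0–100 scale after plants stood 13 to 15 days in the greenhouse following pre- or postemergence treatment with surfactant-containing formulations.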

[2] = test system: corn; assay: Test B pre-/postemergence herbicide test; type: in vivo, Zea mays; settings: for Corn plant response rating: postemergence, visual rating, scale 0 (no effect) to 100 (complete control)
How it was run: as §1

[3] = test system: barnyardgrass; assay: Test B pre-/postemergence herbicide test; type: in vivo, Echinochloa crus-galli; settings: 0 = no effect, 100 = complete control, preemergence
How it was run: (§2)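 Plants compared with untreated controls 13–15 days post-treatment and given a visual 0–100 injury score. Applications: preemergence to seeds; postemergence at 1- to 4-leaf (2–18 cm); paddy species flooded, 2-leaf stage. Vehicle non-phytotoxic, surfactant included.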

[4] = test system: blackgrass; assay: Test B postemergence herbicide test; type: in vivo, Alopecurus myosuroides; settings: postemergence, visual rating, scale 0 (no effect) to 100 (complete control)
How it was run: (§3)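 Formulated test chemicals went onto postemergence plants measuring 2 to 18 cm, at one to four leaves. For the paddy assay, species had reached two leaves. Scoring took place 13–15 days later by eye, relative to untreated plants, using 0 for no effect up to 100 for full control.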

[5] = test system: wheat; assay: Test B postemergence herbicide test; type: in vivo, Triticum aestivum; design: key to Wheat plant response rating: 0 = no effect, 100 = complete control; settings: postemergence, visual rating, scale 0 (no effect) to 100 (complete control)
How it was run: (§4)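 Plants grow to 1- to 4-leaf stage (2–18 cm) for postemergence spraying, or to 2-leaf stage for the paddy test. Formulated compound is applied. Greenhouse holding lasts 13–15 days. Response is scored visually relative to controls, 0 no effect to 100 complete control; a dash means no result.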

[6] = test system: giant foxtail; assay: Test B pre-/postemergence herbicide test; type: in vivo, Setaria faberi; settings: for Foxtail, Giant plant response rating: postemergence, scale 0 (no effect) to 100 (complete control)
How it was run: as §1

[7] = test system: rice; assay: Test B flooded paddy test; type: in vivo, Oryza sativa; settings: 1000 g ai/ha, scale 0 to 100 (0 no effect, 100 complete control)
How it was run: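 Treated at 2-leaf (paddy) or 1–4-leaf, 2–18 cm (postemergence); greenhouse 13–15 d; visual score vs control, 0 none to 100 complete control; dash = not tested.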

[8] = test system: wild oat; assay: Test B postemergence herbicide test; type: in vivo, Avena fatua; settings: postemergence, visual rating, scale 0 (no effect) to 100 (complete control)
How it was run: as §4

[9] = test system: cocklebur; assay: Test B pre-/postemergence herbicide test; type: in vivo, Xanthium strumarium; settings: for Cocklebur plant response rating: postemergence, scale 0 (no effect) to 100 (complete control)
How it was run: as §2

[10] = test system: pigweed; assay: Test B pre-/postemergence herbicide test; type: in vivo, Amaranthus retroflexus; settings: for Pigweed plant response rating: postemergence, scale 0 (no effect) to 100 (complete control)
How it was run: as §1

[11] = test system: small flower umbrella sedge; assay: Test B flooded paddy test; type: in vivo, Cyperus difformis; settings: 1000 g ai/ha, scale 0 to 100 (0 no effect, 100 complete control)
How it was run: as §3

[12] = test system: morningglory; assay: Test B pre-/postemergence herbicide test; type: in vivo, Ipomoea coccinea; settings: for Morningglory plant response rating: postemergence, scale 0 (no effect) to 100 (complete control)
How it was run: as §2

[13] = test system: velvetleaf; assay: Test B pre-/postemergence herbicide test; type: in vivo, Abutilon theophrasti; settings: for Velvetleaf plant response rating: postemergence, scale 0 (no effect) to 100 (complete control)
How it was run: as §1

[14] = test system: barnyardgrass; assay: Test B flooded paddy test; type: in vivo, Echinochloa crus-galli; settings: 1000 g ai/ha, scale 0 to 100 (0 no effect, 100 complete control)
How it was run: as §3

[15] = test system: lambsquarters; assay: Test B pre-/postemergence herbicide test; type: in vivo, Chenopodium album; settings: for Lambsquarters plant response rating: postemergence, scale 0 (no effect) to 100 (complete control)
How it was run: as §1

[16] = test system: large crabgrass; assay: Test B pre-/postemergence herbicide test; type: in vivo, Digitaria sanguinalis; settings: for Crabgrass, Large plant response rating: postemergence, scale 0 (no effect) to 100 (complete control)
How it was run: as §1

[17] = test system: ducksalad; assay: Test B flooded paddy test; type: in vivo, Heteranthera limosa; settings: 1000 g ai/ha, scale 0 to 100 (0 no effect, 100 complete control)
How it was run: as §3

[18] = test system: rice; assay: Test B pre-/postemergence herbicide test; type: in vivo, Oryza sativa; settings: 0 = no effect, 100 = complete control, preemergence
From the text: Seeds selected from barnyardgrass (Echinochloa crus-galli (L.) Beauv.), Surinam grass (Urochloa decumbens (Staph) R. D. Webster, previously named Brachiaria decumbens Stapf), cocklebur (Xanthium strumarium L.), corn (Zea mays L.), large crabgrass (Digitaria sanguinalis (L.) Scop.), giant foxtail (Setaria faberi Herim.), lambsquarters (Chenopodium album L.), morningglory (Ipomoea coccinea L.), pigweed (Amaranthus retroflexus L.), rice (Oryza sativa L.) and velvetleaf (Abutilon theophrasti Medik.) were planted and treated preemergence with test chemicals formulated in a non-phytotoxic solvent mixture which included a surfactant.
At the same time, plants selected from these crop and weed species and also blackgrass (Alopecurus myosuroides Huds.), wheat (Triticum aestivum L.) and wild oat (Avena fatua L.) were treated with postemergence applications of test chemicals formulated in the same manner. Plants ranged in height from 2 to 18 cm (1- to 4-leaf stage) for postemergence treatments. Plant species in the flooded paddy test consisted of rice (Oryza sativa L.), small flower umbrella sedge (Cyperus difformis L.), ducksalad (Heteranthera limosa (Sw.) Willd.) and barnyardgrass (Echinochloa crus-galli (L.) Beauv.) grown to the 2-leaf stage for testing. Treated plants and controls were maintained in a greenhouse for 13 to 15 days, after which time all species were compared to controls and visually evaluated. Plant response ratings, summarized in Table B, are based on a scale of 0 to 100 where 0 is no effect and 100 is complete control. A dash (-) response means no test result.

[19] = 125 g ai/ha, 0 = no effect, 100 = complete control, preemergence
[20] = 500 g ai/ha, visual rating, 0 = no effect, 100 = complete control, preemergence

In the case of `CCc1cn(C(C)(C)C)nc1C(=O)Nc1cc(C(=O)N(CC)CC)ccn1` [Compound 234], the “Surinam Grass plant response rating (0 to 100 scale)” value [1, 19] was 0, the “Plant response rating, Surinam Grass” value [1, 20] was 0 and the “Surinam Grass plant response rating” value ([1]; 125 g ai/ha, visual rating) was 0. For the same compound, the “Surinam Grass plant response rating” value ([1]; 500 g ai/ha, visual rating) was 10, the “Corn plant response rating (0 to 100 scale)” value [2, 19] was 0 and the “Corn plant response rating” value ([2]; 125 g ai/ha) was 0. For the same compound, the “Corn plant response rating” value ([2]; 500 g ai/ha) was 20, the “Barnyardgrass plant response rating (0 to 100 scale)” value ([3]; 125 g ai/ha) was 0 and the “Plant response rating, Barnyardgrass” value ([3]; 500 g ai/ha, visual rating) was 0. The “Blackgrass plant response rating” value ([4]; 125 g ai/ha) was 0, the “Blackgrass plant response rating” value ([4]; 500 g ai/ha) was 0 and the “Wheat plant response rating” value ([5]; 125 g ai/ha) was 0. The “Wheat plant response rating” value ([5]; 500 g ai/ha) was 10, the “Foxtail, Giant plant response rating (0 to 100 scale)” value [6, 19] was 0 and the “Plant response rating, Foxtail, Giant” value [6, 20] was 10. The “Foxtail, Giant plant response rating” value ([6]; 125 g ai/ha, visual rating) was 0, the “Foxtail, Giant plant response rating” value ([6]; 500 g ai/ha, visual rating) was 30 and the “Rice plant response rating” value [7] was 0. The “Oat, Wild plant response rating” value ([8]; 125 g ai/ha) was 20, the “Oat, Wild plant response rating” value ([8]; 500 g ai/ha) was 20 and the “Cocklebur plant response rating (0 to 100 scale)” value [9, 19] was 0. For the same compound, the “Plant response rating, Cocklebur” value [9, 20] was 0, the “Cocklebur plant response rating” value ([9]; 125 g ai/ha, visual rating) was 10 and the “Cocklebur plant response rating” value ([9]; 500 g ai/ha, visual rating) was 20. For the same compound, the “Pigweed plant response rating (0 to 100 scale)” value [10, 19] was 0, the “Plant response rating, Pigweed” value [10, 20] was 40 and the “Pigweed plant response rating” value ([10]; 125 g ai/ha, visual rating) was 30. For the same compound, the “Pigweed plant response rating” value ([10]; 500 g ai/ha, visual rating) was 30, the “Sedge, Umbrella plant response rating” value [11] was 0 and the “Morningglory plant response rating (0 to 100 scale)” value [12, 19] was 0. For the same compound, the “Plant response rating, Morningglory” value [12, 20] was 0, the “Morningglory plant response rating” value ([12]; 125 g ai/ha, visual rating) was 20 and the “Morningglory plant response rating” value ([12]; 500 g ai/ha, visual rating) was 70. The “Velvetleaf plant response rating (0 to 100 scale)” value [13, 19] was 0, the “Plant response rating, Velvetleaf” value [13, 20] was 0 and the “Velvetleaf plant response rating” value ([13]; 125 g ai/ha, visual rating) was 20. The “Velvetleaf plant response rating” value ([13]; 500 g ai/ha, visual rating) was 30, the “Barnyardgrass plant response rating” value [14] was 0 and the “Lambsquarters plant response rating (0 to 100 scale)” value [15, 19] was 0. The “Plant response rating, Lambsquarters” value [15, 20] was 50, the “Lambsquarters plant response rating” value ([15]; 125 g ai/ha, visual rating) was 20 and the “Lambsquarters plant response rating” value ([15]; 500 g ai/ha, visual rating) was 40. For the same compound, the “Crabgrass, Large plant response rating (0 to 100 scale)” value [16, 19] was 0, the “Plant response rating, Crabgrass, Large” value [16, 20] was 40 and the “Crabgrass, Large plant response rating” value ([16]; 125 g ai/ha, visual rating) was 10. The “Crabgrass, Large plant response rating” value ([16]; 500 g ai/ha, visual rating) was 20, the “Ducksalad plant response rating” value [17] was 0 and the “Rice plant response rating (0 to 100 scale)” value ([18]; 125 g ai/ha) was 0. For the same compound, the “Plant response rating, Rice” value ([18]; 500 g ai/ha, visual rating) was 0.
